Among the data in ChEMBL document CHEMBL5252602, “Identification and in silicon binding study of a novel NR2B selective NMDAR antagonist” (Bioorg Med Chem Lett, 2023) are Activity and IC50 values, retold here.

Experiment [1] deals with SH-SY5Y. Kind of experiment: Neuroprotective activity against human SH-SY5Y cells assessed as effect on NMDA mediated cell damage at 0.05 uM by MTT assay relative to control. The class given is functional. On the technique in general: Tetrazolium assays rely on reduction of a dye to a coloured formazan, in cell work by metabolically active cells.
For experiment [2], the system named is SH-SY5Y. As to the kind of experiment: Neuroprotective activity against human SH-SY5Y cells assessed as effect on NMDA mediated cell damage at 0.5 uM by MTT assay relative to control. The class given is functional.
For experiment [3], the system named is SH-SY5Y. As to the kind of experiment: Neuroprotective activity against human SH-SY5Y cells assessed as effect on NMDA mediated cell damage at 5 uM by MTT assay relative to control. It counts as functional.
In experiment [4] the target is Glutamate receptor ionotropic, NMDA 2B (Homo sapiens, UniProt Q05586+Q13224). Kind of experiment: Antagonist activity at NMDA receptor NR2B subunit (unknown origin).
Glutamate receptor ionotropic, NMDA 2B, sequence (Q13224 whole entry, one chain of several): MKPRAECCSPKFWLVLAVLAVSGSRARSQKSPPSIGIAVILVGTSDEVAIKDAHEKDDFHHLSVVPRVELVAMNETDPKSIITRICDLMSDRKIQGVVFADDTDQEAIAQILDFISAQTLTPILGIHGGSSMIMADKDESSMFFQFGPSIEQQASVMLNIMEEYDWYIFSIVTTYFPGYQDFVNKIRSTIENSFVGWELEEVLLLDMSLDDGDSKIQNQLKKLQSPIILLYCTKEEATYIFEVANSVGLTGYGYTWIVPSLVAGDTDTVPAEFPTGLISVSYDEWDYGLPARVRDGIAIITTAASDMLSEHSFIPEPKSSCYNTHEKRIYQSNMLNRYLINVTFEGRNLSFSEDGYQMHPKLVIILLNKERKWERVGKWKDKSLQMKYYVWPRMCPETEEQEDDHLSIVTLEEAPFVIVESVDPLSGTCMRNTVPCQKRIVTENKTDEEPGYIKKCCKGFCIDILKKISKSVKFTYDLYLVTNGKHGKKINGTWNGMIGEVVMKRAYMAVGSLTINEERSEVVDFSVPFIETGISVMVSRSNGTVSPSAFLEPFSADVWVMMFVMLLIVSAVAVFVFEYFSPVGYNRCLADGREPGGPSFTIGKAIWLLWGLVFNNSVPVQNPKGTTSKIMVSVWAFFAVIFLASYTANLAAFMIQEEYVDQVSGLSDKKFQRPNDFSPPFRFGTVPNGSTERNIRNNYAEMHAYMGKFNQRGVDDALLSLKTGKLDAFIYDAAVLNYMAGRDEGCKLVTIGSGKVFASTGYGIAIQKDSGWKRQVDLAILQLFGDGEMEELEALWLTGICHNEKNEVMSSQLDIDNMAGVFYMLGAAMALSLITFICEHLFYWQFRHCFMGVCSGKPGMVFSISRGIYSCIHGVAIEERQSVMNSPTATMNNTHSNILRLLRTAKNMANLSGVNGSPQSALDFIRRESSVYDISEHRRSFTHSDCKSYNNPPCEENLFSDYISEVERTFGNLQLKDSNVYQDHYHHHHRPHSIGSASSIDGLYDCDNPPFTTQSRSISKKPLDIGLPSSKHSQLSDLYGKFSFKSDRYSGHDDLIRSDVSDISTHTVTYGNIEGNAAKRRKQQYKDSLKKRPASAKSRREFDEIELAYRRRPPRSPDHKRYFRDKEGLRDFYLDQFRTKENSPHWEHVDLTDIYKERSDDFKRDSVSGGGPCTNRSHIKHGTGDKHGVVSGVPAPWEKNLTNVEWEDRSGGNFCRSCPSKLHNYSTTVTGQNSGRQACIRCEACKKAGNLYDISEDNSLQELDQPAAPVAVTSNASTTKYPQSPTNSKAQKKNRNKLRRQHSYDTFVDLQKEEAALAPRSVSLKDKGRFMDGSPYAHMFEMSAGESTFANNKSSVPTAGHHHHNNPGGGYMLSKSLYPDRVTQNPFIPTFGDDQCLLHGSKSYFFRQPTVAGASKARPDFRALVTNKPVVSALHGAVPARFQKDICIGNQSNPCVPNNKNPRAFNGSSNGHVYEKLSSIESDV

Regarding `O=C(NNC(=O)[C@@H]1CCC2=Nc3ccc(Cl)cc3CN21)c1ccc(O)cc1`, the values for the Activity in the experiment with SH-SY5Y [1], in the experiment on SH-SY5Y [2] and in the experiment with SH-SY5Y [3] were 16.03%, 22.55% and 22.58%, respectively.
Turning to `O=C(NCCc1ccccc1)[C@@H]1CCC2=Nc3ccc(Cl)cc3CN21`, the values for the Activity with SH-SY5Y [1], in the experiment on SH-SY5Y [2] and in the experiment on SH-SY5Y [3] were 13.21%, 5.78% and 10.01%, respectively.
As for `O=C(NCCc1cccc(O)c1)[C@@H]1CCC2=Nc3ccc(Cl)cc3CN21`, the Activity came out at 23.62% with SH-SY5Y [1], 28.02% with SH-SY5Y [2] and 29.37% with SH-SY5Y [3].
For the compound `Nc1ccc(CCNC(=O)[C@@H]2CCC3=Nc4ccc(Br)cc4CN32)cc1`, the Activity in the experiment with SH-SY5Y [1] is reported as -15.74%; with SH-SY5Y [2], -15.08%; with SH-SY5Y [3] it was -11.03%.
As to `Cc1nccn1Cc1cc(-c2ccc(F)c(C(F)F)c2)cnn1` [EVT-101 FREE BASE], it took 17 nM to reach half-maximal inhibition in experiment [4] (IC50). In other words, the double-digit nanomolar range.
In the case of `Nc1ccc(CCNC(=O)[C@@H]2CCC3=Nc4ccc(Cl)cc4CN32)cc1`, the figures for the Activity in the experiment on SH-SY5Y [1], in the experiment on SH-SY5Y [2] and with SH-SY5Y [3] were -5.03%, -16.58% and -15.32%, respectively.
Taken in the same sequence, the figures for `COc1ccc(CCNC(=O)[C@@H]2CCC3=Nc4ccc(Br)cc4CN32)cc1` were 27.75%, 27.25% and 17.27%.
`O=C(NCCc1cccc(O)c1)[C@@H]1CCC2=Nc3ccc(Br)cc3CN21`: the Activity in the experiment with SH-SY5Y [1] is 28.73%; in the experiment with SH-SY5Y [2] it was 28.87%; in the experiment with SH-SY5Y [3], 25.35%.
For `O=C(NNC(=O)[C@@H]1CCC2=Nc3ccc(Br)cc3CN21)c1ccccc1` the same measures were 7.13%, 20.92% and 18.22%.
For `O=C(NCCc1ccc(F)cc1)[C@@H]1CCC2=Nc3ccc(Br)cc3CN21` the same measures were 4.05%, 7.08% and -2.81%.
`Nc1ccc(C(=O)NNC(=O)[C@@H]2CCC3=Nc4ccc(Cl)cc4CN32)cc1`: the values for the Activity with SH-SY5Y [1], in the experiment on SH-SY5Y [2] and in the experiment with SH-SY5Y [3] were 30.71%, 25.28% and 20.43%, respectively.
For `COc1ccc(C(=O)NNC(=O)[C@@H]2CCC3=Nc4ccc(Br)cc4CN32)cc1` the same measures were 9.01%, 15.94% and 19.77%.
As for `O=C(NCCc1ccc(O)cc1)[C@@H]1CCC2=Nc3ccc(Cl)cc3CN21`, the results for the Activity in the experiment with SH-SY5Y [1], with SH-SY5Y [2] and in the experiment with SH-SY5Y [3] were 28.93%, 28.33% and 21.32%, respectively.
Take `Nc1ccc(C(=O)NNC(=O)[C@@H]2CCC3=Nc4ccc(Br)cc4CN32)cc1`: the figures for the Activity with SH-SY5Y [1], in the experiment on SH-SY5Y [2] and in the experiment with SH-SY5Y [3] were 25.12%, 24.22% and 15.62%, respectively.
For `O=C(NCCc1ccc(F)cc1)[C@@H]1CCC2=Nc3ccc(Cl)cc3CN21` the same measures were 13.45%, 27.96% and 26.14%.
`CC(C(O)c1ccc(O)cc1)N1CCC(Cc2ccccc2)CC1` (stereo not given) [IFENPRODIL]: the figures for the Activity with SH-SY5Y [1], in the experiment with SH-SY5Y [2] and in the experiment on SH-SY5Y [3] were 16.4%, 22.57% and 35.81%, respectively.
On to `O=C(NNC(=O)[C@@H]1CCC2=Nc3ccc(Br)cc3CN21)c1ccc(F)cc1`, for which the Activity amounted to 23.87% in the experiment with SH-SY5Y [1], 19.88% in the experiment on SH-SY5Y [2] and 19.48% in the experiment on SH-SY5Y [3].
`O=C(NCCc1cccc(O)c1)[C@@H]1CCC2=Nc3ccccc3CN21`: the Activity in the experiment on SH-SY5Y [1] is reported as 29.63%; in the experiment on SH-SY5Y [2], 29.17%; in the experiment on SH-SY5Y [3] it was 24.42%.
For `COc1ccc(CCNC(=O)[C@@H]2CCC3=Nc4ccc(Cl)cc4CN32)cc1` the same measures were 17.35%, 30.19% and 30.66%.
For `COc1ccc(C(=O)NNC(=O)[C@@H]2CCC3=Nc4ccc(Cl)cc4CN32)cc1` the same measures were 19.6%, 20.2% and 12.17%.
With `COc1ccc(C(=O)NNC(=O)[C@@H]2CCC3=Nc4ccccc4CN32)cc1`, the Activity is 12.59% with SH-SY5Y [1], 17.74% in the experiment with SH-SY5Y [2] and 22.42% with SH-SY5Y [3].
Taken in the same sequence, the figures for `O=C(NNC(=O)[C@@H]1CCC2=Nc3ccc(Cl)cc3CN21)c1ccccc1` were 26.91%, 24.25% and 19.76%.
Taken in the same sequence, the figures for `O=C(NCCc1ccccc1)[C@@H]1CCC2=Nc3ccc(Br)cc3CN21` were 11.08%, 7.54% and 10.59%.
As for `O=C(NNC(=O)[C@@H]1CCC2=Nc3ccc(Cl)cc3CN21)c1ccc(F)cc1`, the values for the Activity in the experiment with SH-SY5Y [1], with SH-SY5Y [2] and in the experiment on SH-SY5Y [3] were 22.58%, 20.68% and 17.26%, respectively.
